Experimental data as given in patent US6596702B2, “Compositions for use in rehydration and nutrition during athletic exercise and methods of making same” (Elan Drug Delivery Limited, priority 1994, dated 2003).

Experiments:
[1] = Blood glucose levels with trehalose as carbohydrate source in a sports beverage; assay type: in vivo; conditions: trehalose as primary carbohydrate source in sports beverages
[2] = Osmolarity of aqueous trehalose solution (Roebling Micro-Osmometer); assay type: physicochemical
Protocol: 5.0 to 11.34 g of trehalose dihydrate is dry blended at an rpm greater than 18,000 until the consistency of is a uniform powder. Thereafter, the trehalose dihydrate is dissolved in distilled deionized water to a final volume of 100 mL and an osmolarity of 300 mOsm or less. For 11.34 g of trehalose the measured value was 287 mOsm. Measurement of the osmolarity of the final mixture is made on a Roebling Micro-Osmometer.

[3] = Tolerability of trehalose; assay type: in vivo; conditions: humans

osmolarity ([2]; 1 molar solution of trehalose): 1665 mOsm
osmolarity, measured value ([2]; 11.34 g trehalose dihydrate dissolved in distilled deionized water to a final volume of 100 mL): 287 mOsm
osmolarity ([2]; 11.34 g trehalose dihydrate in distilled deionized water, final volume 100 mL, stated isotonic value): 300 mOsm
Structure (SMILES): OC[C@H]1O[C@H](O[C@H]2O[C@H](CO)[C@@H](O)[C@H](O)[C@H]2O)[C@H](O)[C@@H](O)[C@@H]1O [trehalose, α-D-glucopyranosyl-α-D-glucopyranoside]
blood glucose levels over that of glucose alone [1]: two-fold
tolerability [3]: well tolerated
